pIC50: −log10 of the molar value. Structures can show the parent of a compound that is named as a salt. Where two headings read alike, the source gives them in different places.

Consider 27 molecules from patent publication US11512053B2, “Arginine methyltransferase inhibitors and uses thereof” (priority 2013, dated 2022).

Assay [1] has as its target full-length human PRMT6 (Flag- and His-tagged) (Homo sapiens, UniProt Q96LA8). The experiment in a line: PRMT6 Biochemical Assay (3H-SAM Flashplate, peptide substrate). The settings on record: read-out: Biochemical IC50 PRMT6. The essentials: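 Flag/His-tagged full-length human PRMT6 (1 nM) preincubated with compound 30 min at room temperature in Bicine pH 7.6 buffer, then reaction started with 3H-SAM 200 nM plus unlabeled SAM 250 nM and biotinylated H4 36-50 peptide (K44me1) 75 nM; 2% DMSO. Quenched with 400 uM cold SAM; labeled peptide captured on streptavidin Flashplate, counted; % inhibition vs DMSO and 1 mM SAH controls fit by 3- or 4-parameter curve.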

Assay [2] deals with full-length human PRMT1 isoform 1 (GST-tagged) (Homo sapiens, UniProt Q99873). Briefly: PRMT1 Biochemical Assay (3H-SAM Flashplate, peptide substrate). The essentials: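 GST-tagged full-length PRMT1 from baculovirus-infected cells, preincubated 30 min at room temperature with compound in 20 mM Bicine pH 7.6, TCEP, BSG, Tween 20. Reaction started with 3H-SAM plus biotinylated peptide, stopped with 300 uM unlabelled SAM. Streptavidin Flashplate capture and scintillation counting; % inhibition curve-fitted for IC50.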

Where [3] appears, read: single experiment or average of multiple experiments.

full-length human PRMT6 (Flag- and His-tagged), sequence (Q96LA8 with tags, fused parts or gaps): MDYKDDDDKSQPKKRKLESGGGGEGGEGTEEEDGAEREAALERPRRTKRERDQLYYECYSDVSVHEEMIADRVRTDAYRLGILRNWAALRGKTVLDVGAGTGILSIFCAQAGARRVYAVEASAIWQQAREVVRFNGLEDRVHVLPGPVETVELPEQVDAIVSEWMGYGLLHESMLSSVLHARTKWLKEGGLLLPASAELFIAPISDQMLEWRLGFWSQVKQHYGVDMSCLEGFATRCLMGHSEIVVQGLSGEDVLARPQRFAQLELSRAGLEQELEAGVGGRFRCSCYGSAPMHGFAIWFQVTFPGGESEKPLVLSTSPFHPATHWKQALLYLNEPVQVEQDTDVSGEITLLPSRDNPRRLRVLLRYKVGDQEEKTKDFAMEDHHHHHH
full-length human PRMT1 isoform 1 (GST-tagged), sequence (Q99873 with tags, fused parts or gaps): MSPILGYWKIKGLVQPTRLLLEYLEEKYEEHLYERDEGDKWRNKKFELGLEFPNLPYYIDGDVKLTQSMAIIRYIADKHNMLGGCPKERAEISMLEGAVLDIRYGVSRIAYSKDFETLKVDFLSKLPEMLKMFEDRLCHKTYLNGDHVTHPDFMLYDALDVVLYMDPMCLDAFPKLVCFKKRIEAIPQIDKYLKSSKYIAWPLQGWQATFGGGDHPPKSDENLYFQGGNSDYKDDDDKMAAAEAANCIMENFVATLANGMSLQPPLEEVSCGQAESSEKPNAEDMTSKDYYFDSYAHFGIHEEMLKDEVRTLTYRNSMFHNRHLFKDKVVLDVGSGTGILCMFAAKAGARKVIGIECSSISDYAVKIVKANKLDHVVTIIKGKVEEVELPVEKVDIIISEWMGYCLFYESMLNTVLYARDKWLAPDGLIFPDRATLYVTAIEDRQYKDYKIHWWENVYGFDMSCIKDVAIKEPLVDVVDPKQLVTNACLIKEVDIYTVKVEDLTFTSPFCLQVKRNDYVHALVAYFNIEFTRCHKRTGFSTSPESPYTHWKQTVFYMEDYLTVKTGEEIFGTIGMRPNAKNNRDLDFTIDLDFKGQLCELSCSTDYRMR

A word on the pIC50: it is −log10 of the IC50, conventionally taken in molar units. As for `CNCCN(C)Cc1c[nH]nc1[C@H]1CC[C@H](N(CCOc2ccccc2)C(=O)CC(C)C)CC1` [Compound 223], the pIC50 in assay [1] is more than 7.00; in assay [1] (setting [3]), 7.80; in assay [2], more than 7.00; in assay [2] (setting [3]), 8.18.

Take `CCN(C(=O)CCOc1ccccc1)[C@H]1CC[C@@H](c2n[nH]cc2CN(C)CCNC)CC1` [Compound 224]: the pIC50 in assay [1] was more than 7.00; in assay [1] (setting [3]), 7.74; in assay [2] it was more than 7.00; in assay [2] (setting [3]), 8.03.

As to `CCN(C(=O)CCOc1ccccc1)[C@H]1CC[C@H](c2n[nH]cc2CN(C)CCNC)CC1` [Compound 225], the pIC50 in assay [1] was more than 7.00; in assay [1] (setting [3]), 7.93; in assay [2] it was more than 7.00; in assay [2] (setting [3]), 8.12.

With `CNCCN(C)Cc1c[nH]nc1[C@H]1CC[C@H](C(=O)N(C)CC(C)C)CC1` [Compound 226], the pIC50 in assay [1] is more than 7.00; in assay [1] (setting [3]), 7.38; in assay [2], more than 7.00; in assay [2] (setting [3]), 7.48.

For `CNCCN(C)Cc1c[nH]nc1[C@H]1CC[C@H](O)CC1` [Compound 227, 4-[4-([methyl[2-(methylamino)ethyl]amino]methyl)-1H-pyrazol-3-yl]cyclohexan-1-ol trifluoroacetate], the pIC50 in assay [1] was more than 7.00; in assay [1] (setting [3]), 7.75; in assay [2], more than 7.00; in assay [2] (setting [3]) it was 7.77.

Consider `CNCCN(C)Cc1c[nH]nc1[C@H]1CC[C@@H](N(CCOc2ccccc2)C(=O)CCCOC)CC1` [Compound 228], for which the pIC50 in assay [1] is more than 7.00; in assay [1] (setting [3]), 7.73; in assay [2], more than 7.00; in assay [2] (setting [3]) it was 7.16.

Turning to `CNCCN(C)Cc1c[nH]nc1[C@H]1CC[C@H](N(CCOc2ccccc2)C(=O)CCCOC)CC1` [Compound 229], the pIC50 in assay [1] was more than 7.00; in assay [1] (setting [3]), 7.54; in assay [2], more than 7.00; in assay [2] (setting [3]), 7.96.

In the case of `CNCCN(C)Cc1c[nH]nc1[C@H]1CC[C@H](N(CCOC)C(=O)CCOc2ccccc2)CC1` [Compound 230], the pIC50 in assay [1] was more than 7.00; in assay [1] (setting [3]) it was 7.64; in assay [2] it was more than 7.00; in assay [2] (setting [3]) it was 7.87.

For `CNCCN(C)Cc1c[nH]nc1[C@H]1CC[C@@H](N(CC(C)C)C(=O)CCOc2ccccc2)CC1` [Compound 231], the pIC50 in assay [1] is more than 7.00; in assay [1] (setting [3]), 7.83; in assay [2], more than 7.00; in assay [2] (setting [3]) it was 8.19.

`CNCCN(C)Cc1c[nH]nc1[C@H]1CC[C@H](N(CC(C)C)C(=O)CCOc2ccccc2)CC1` [Compound 232]: the pIC50 in assay [1] is more than 7.00; in assay [1] (setting [3]) it was 7.71; in assay [2], more than 7.00; in assay [2] (setting [3]), 8.04.

For `CNCCN(C)Cc1c[nH]nc1[C@H]1CC[C@@H](N(CC(C)C)C(=O)CCOC)CC1` [Compound 233], the pIC50 in assay [1] is more than 7.00; in assay [1] (setting [3]), 7.32; in assay [2] it was more than 7.00; in assay [2] (setting [3]), 7.68.

`CNCCN(C)Cc1c[nH]nc1[C@H]1CC[C@H](N(CC(C)C)C(=O)CCOC)CC1` [Compound 234]: the pIC50 in assay [1] was more than 7.00; in assay [1] (setting [3]), 7.08; in assay [2], more than 7.00; in assay [2] (setting [3]), 7.79.

Regarding `CNCCN(C)Cc1c[nH]nc1[C@H]1CC[C@@H](N(CCC(C)C)C(=O)CCOC)CC1` [Compound 235], the pIC50 in assay [1] was more than 7.00; in assay [1] (setting [3]), 7.47; in assay [2] it was more than 7.00; in assay [2] (setting [3]) it was 7.59.

For `CNCCN(C)Cc1c[nH]nc1[C@H]1CC[C@H](N(CCC(C)C)C(=O)CCOC)CC1` [Compound 236], the pIC50 is more than 7.00 in assay [1], 7.20 in assay [1] (setting [3]), more than 7.00 in assay [2] and 7.54 in assay [2] (setting [3]).

Regarding `CNCCN(C)Cc1c[nH]nc1[C@H]1CC[C@@H](N(CCC(C)C)C(=O)CCCOC)CC1` [Compound 237], the pIC50 was more than 7.00 in assay [1], 7.39 in assay [1] (setting [3]), more than 7.00 in assay [2] and 7.37 in assay [2] (setting [3]).

Consider `CNCCN(C)Cc1c[nH]nc1[C@H]1CC[C@H](N(CCC(C)C)C(=O)CCCOC)CC1` [Compound 238], for which the pIC50 in assay [1] is more than 7.00; in assay [1] (setting [3]), 7.27; in assay [2], more than 7.00; in assay [2] (setting [3]), 7.53.

With `CCN(C(=O)CC(C)C)[C@H]1CC[C@H](c2n[nH]cc2CN(C)CCNC)CC1` [Compound 239], the pIC50 in assay [1] was more than 7.00; in assay [1] (setting [3]), 8.11; in assay [2], more than 7.00; in assay [2] (setting [3]), 8.18.

In the case of `CCN(C(=O)CC(C)C)[C@H]1CC[C@@H](c2n[nH]cc2CN(C)CCNC)CC1` [Compound 240], the pIC50 in assay [1] was more than 7.00; in assay [1] (setting [3]) it was 8.17; in assay [2], more than 7.00; in assay [2] (setting [3]), 8.21.

For `CNCCN(C)Cc1c[nH]nc1[C@H]1CC[C@H](N(CCCOC)C(=O)CC(C)C)CC1` [Compound 241], the pIC50 is more than 7.00 in assay [1], 7.48 in assay [1] (setting [3]), more than 7.00 in assay [2] and 7.65 in assay [2] (setting [3]).

`CNCCN(C)Cc1c[nH]nc1[C@H]1CC[C@@H](N(CCCOC)C(=O)CC(C)C)CC1` [Compound 242]: the pIC50 in assay [1] is more than 7.00; in assay [1] (setting [3]), 7.38; in assay [2], more than 7.00; in assay [2] (setting [3]), 7.55.

As to `CNCCN(C)Cc1c[nH]nc1[C@H]1CC[C@H](N(CCCOC)C(=O)CCC(C)C)CC1` [Compound 243], the pIC50 in assay [1] was more than 7.00; in assay [1] (setting [3]), 7.82; in assay [2] it was more than 7.00; in assay [2] (setting [3]), 7.49.

On to `CNCCN(C)Cc1c[nH]nc1[C@H]1CC[C@@H](N(CCCOC)C(=O)CCC(C)C)CC1` [Compound 244], for which the pIC50 was more than 7.00 in assay [1], 7.26 in assay [1] (setting [3]), more than 7.00 in assay [2] and 7.40 in assay [2] (setting [3]).

Turning to `CNCCN(C)Cc1cnn(C)c1[C@H]1CC[C@@]2(CC1)CC(C)(C)CO2` [Compound 245, Methyl ([2-[methyl([1-methyl-5-[(5S,8S)-3,3-dimethyl-1-oxaspiro[4.5]decan-8-yl]-1H-pyrazol-4-yl]methyl)amino]ethyl])amine trifluoroacetic acid salt], the pIC50 in assay [1] was more than 7.00; in assay [1] (setting [3]), 7.21; in assay [2], more than 7.00; in assay [2] (setting [3]), 7.73.

For `CNCCN(C)Cc1c[nH]nc1[C@H]1CC[C@@H](N(CCCOC)C(=O)CCOc2ccccc2)CC1` [Compound 246], the pIC50 in assay [1] is more than 7.00; in assay [1] (setting [3]), 7.55; in assay [2], more than 7.00; in assay [2] (setting [3]), 7.90.

Regarding `CNCCN(C)Cc1c[nH]nc1[C@H]1CC[C@H](N(CCCOC)C(=O)CCOc2ccccc2)CC1` [Compound 247], the pIC50 in assay [1] is more than 7.00; in assay [1] (setting [3]), 7.70; in assay [2] it was more than 7.00; in assay [2] (setting [3]), 7.96.

In the case of `CNCCN(C)Cc1c[nH]nc1[C@H]1CC[C@H](N(CC(C)C)C(=O)CCCOC)CC1` [Compound 248], the pIC50 in assay [1] is more than 7.00; in assay [1] (setting [3]), 7.49; in assay [2], more than 7.00; in assay [2] (setting [3]), 7.88.

On to `CNCCN(C)Cc1c[nH]nc1[C@H]1CC[C@H](N(CC(C)C)C(=O)CCCOC)CC1` [Compound 249], for which the pIC50 in assay [1] is more than 7.00; in assay [1] (setting [3]), 7.08; in assay [2], more than 7.00; in assay [2] (setting [3]), 7.62.
